Laboratory results taken from patent publication US20230025280A1, “PH RESPONSIVE COMPOSITIONS, FORMULATIONS, AND METHODS OF IMAGING A TUMOR” (ONCONANO MEDICINE, INC, priority 2019, published 2023).
Several values for one entry are separate records, joined by “and”; a condition that tells them apart may be missing. Equal entries are not always repeated.

How the values were obtained:
lymph node metastases = assay: Lymph node imaging (PEARL) versus H/E staining; assay type: in vivo, human
Excerpt: After lymph node dissection, lymph nodes were identified by the attending pathologist and harvested if present. After harvesting, the single lymph nodes were imaged before further processing using PEARL imaging. The images were processed using ImageJ (FiJi). The fluorescent images were reviewed by 2 separate researchers blinded for histology, whether fluorescence was present. The pathologist, blinded for fluorescence images, evaluated whether the lymph node was positive for tumor invasion or isolated tumor cells based on H/E staining.

[1] = Phase 1 safety assessment; assay type: in vivo, human
Protocol: Phase 1a was a dose-finding study performed in 5 cohorts of 3 patients each. The dose levels evaluated were […], and 1.2 mg/kg, in this sequence. Inter-cohort dose escalation took place after the last patient in the previous cohort completed the Day 10 safety assessment. Safety, PK, and imaging feasibility were evaluated in both the Phase 1a and 1b portions of the study. Patient safety is assessed during the study and for up to 10 days post-dose.

[2] = 403 lymph nodes across 4 tumor types
[3] = TOTAL of all patients, 403 lymph nodes
[4] = lymph nodes per patient, fluorescence vs H/E pathology

Substance: PEO90-140-b-P(DBA60-150-r-ICG0-3-r-AMA0-3) [Compound 1]
- Overall sensitivity in lymph nodes (lymph node metastases; 30/(30+34)): 0.47
- Overall specificity in lymph nodes (lymph node metastases; 293/(46+293)): 0.86
- Lymph nodes fluorescence negative / H/E negative (lymph node metastases; [2]): 293 of 339 and 293
- Lymph nodes fluorescence negative / H/E positive (lymph node metastases; [2]): 34
- Lymph nodes fluorescence negative, TOTAL (lymph node metastases; [2]): 327
- Lymph nodes fluorescence positive / H/E negative (lymph node metastases; [2]): 46
- Lymph nodes fluorescence positive / H/E positive (lymph node metastases; [2]): 30
- Lymph nodes fluorescence positive, TOTAL (lymph node metastases; [2]): 76
- False Negatives n (lymph node metastases; [3]): 34
- False Positives n (lymph node metastases; [3]): 46
- True Negatives n (lymph node metastases; [3]): 293
- True Positives n (lymph node metastases; [3]): 30
- False Negatives n (lymph node metastases; [4]): 0 (23×) and 1 (4×) and 3 and 2 and 25
- False Positives n (lymph node metastases; [4]): 0 (12×) and 3 (4×) and 1 (9×) and 4 and 2 (2×) and 6 and 11
- True Negatives n (lymph node metastases; [4]): 0 (12×) and 50 and 14 (2×) and 7 and 44 and 20 and 2 (3×) and 34 and 1 (2×) and 15 and 41 and 8 and 16 and 18 and 4
- True Positives n (lymph node metastases; [4]): 2 (2×) and 0 (22×) and 1 (4×) and 12 and 10
- Safety profile ([1]; Phase 1a, 0.1 to 1.2 mg/kg): comparable at all the dose levels studied and did not raise any specific safety concerns
- Tolerability ([1]; Phase 1b, 1.2 mg/kg): well tolerated
